{
  "source": "patent US20190231757A1",
  "about": "“COMBINATION OF SPLEEN TYROSINE KINASE INHIBITORS AND OTHER THERAPEUTIC AGENTS” (Takeda Pharmaceutical Company Limited, priority 2016, published 2019)",
  "key": {"OCI-LY10 xenografts": {"test_system": "OCI-LY10 xenografts", "test": "Antitumor activity in CB17 SCID mice bearing OCI-LY10 xenografts, gemcitabine combination (Example 7)", "format": "in vivo, mouse", "conditions": "Day 21, alone or combined", "protocol": "Tumor growth inhibition was calculated on Day 21 of the study. The last measurement was taken on Day 42 of the study.\n(§1) Experimental design: Female CB17 SCID mice (Taconic Biosciences; weight at treatment start was 20 g) were inoculated subcutaneously in the flank (cell suspension) with 4.0×10^6 OCI-Ly10 cells. Tumor volume was calculated using the formula V=W^2×L/2, where V=volume, W=width and L=length of the tumor. When the mean tumor volume reached approximately 199 mm^3, the animals were randomized into 6 treatment groups (n=8/group). […] Tumor growth and body weight were measured twice per week. Tumor growth inhibition and body weight change were calculated on Day 21 of treatment.\n(§2) Statistical analysis: The differences in the tumor growth trends over time between pairs of treatment groups were assessed using linear mixed effects regression models. These models account for the fact that each animal was measured at multiple time points. A separate model was fit for each comparison, and the areas under the curve (AUC) for each treatment group were calculated using the predicted values from the model. The percent decrease in AUC (dAUC) relative to the reference group was then calculated. […] Further details regarding pairwise comparisons are provided in the Example 2.\n(§3) Drug combinations were assessed for synergy using observed AUC values. The change in AUC relative to the control was calculated for both single agent treatment groups as well as the combination group. The interaction between the two compounds was then assessed by comparing the change in AUC observed in the combination group to the sum of the changes observed in both single agents. The results can be divided into four categories: synergistic, additive, sub-additive, and antagonistic. Further details regarding combination analyses are provided in the Example 2.\n(§4) Once a final analysis was selected, the tumor measurements observed on a date pre-specified by the researcher (typically the last day of treatment) were analyzed to assess tumor growth inhibition. For this analysis, a T/C ratio was calculated for each animal by dividing the tumor measurement for the given animal by the mean tumor measurement across all control animals. The T/C ratios across a treatment group were compared to the T/C ratios of the control group using a two-tailed Welch's t-test."}, "TMD8 DLBCL xenografts [1]": {"test_system": "TMD8 DLBCL xenografts", "test": "Antitumor activity in CB17 SCID mice bearing TMD8 DLBCL xenografts, gemcitabine combination (Example 8)", "format": "in vivo, mouse", "conditions": "Day 14, alone or combined", "protocol": "Tumor growth inhibition was calculated on Day 14 of the study. The last measurement was taken on Day 40 of the study.\nas §1, with “19” for “20”, “5.0×10^6 TMD8” for “4.0×10^6 OCI-Ly10”, “cells. Tumor growth was monitored with vernier calipers.” for “cells.”, “215” for “199”, “into” for “into 6”, “14” for “21”\nas §2\nDrug combinations were assessed for synergy using observed AUC values. The change in AUC relative to the control was calculated for both single agent treatment groups as well as the combination group. The interaction between the two compounds was then assessed by comparing the change in AUC observed in the combination group to the sum of the changes observed in both single agents. The results can be divided into four categories: synergistic, additive, sub-additive, and antagonistic. Further details regarding combination analysis are provided in the Example 2.\nas §4"}, "TMD8 DLBCL xenografts [2]": {"test_system": "TMD8 DLBCL xenografts", "test": "Antitumor activity in CB17 SCID mice bearing TMD8 DLBCL xenografts, ABT-199 or gemcitabine combination (Example 9)", "format": "in vivo, mouse", "conditions": "Day 14, alone or combined with Compound A", "protocol": "Tumor growth inhibition was calculated on Day 14 of the study. The last measurement was taken on Day 29 of the study.\nas §1, with “about 19” for “20”, “5.0×10^6 TMD8” for “4.0×10^6 OCI-Ly10”, “cells. Tumor growth was monitored with vernier calipers.” for “cells.”, “245” for “199”, “14” for “21”\nas §2, §3, §4"}, "[3]": {"test_system": "OCI-Ly10 human lymphoma xenografts", "test": "Antitumor activity in SCID mice bearing OCI-Ly10 human lymphoma xenografts, lenalidomide combination (Example 10)", "format": "in vivo, mouse", "conditions": "alone or combined"}, "[4]": {"test_system": "Ly10 human lymphoma xenografts", "test": "Antitumor activity in SCID mice bearing Ly10 xenografts, rituximab combination (Example 13)", "format": "in vivo, mouse", "conditions": "alone or combined"}, "[5]": {"test": "Body weight and tolerability, OCI-LY10 gemcitabine study (Example 7)", "format": "in vivo, mouse", "conditions": "alone or combined", "protocol": "as §1"}, "[6]": {"test": "Body weight and tolerability, WSU-Luc ibrutinib study (Example 12)", "format": "in vivo, mouse", "conditions": "alone or combined", "protocol": "Tumor growth was monitored with vernier calipers. Tumor volume was calculated using the formula V=W^2×L/2, where V=volume, W=width and L=length of the tumor. When the mean tumor volume reached approximately 190 mm^3, the animals were randomized into treatment groups (n=8/group). […] Tumor growth and body weight were measured twice per week. Tumor growth inhibition and body weight change were calculated on Day 20 of treatment."}, "[7]": {"test_system": "CT26 mouse syngeneic colon cancer model", "test": "CT26 mouse syngeneic colon cancer model, prior non-clinical study", "format": "in vivo", "conditions": "single agents"}, "[8]": {"conditions": "mouse, in vivo, po, 60 mg/kg"}, "[9]": {"conditions": "mouse, in vivo, po, 60 mg/kg", "remark": "listed apart in the source"}, "[10]": {"conditions": "Compound A 60 mg/kg PO QD, gemcitabine 2.5 mg/kg IP Q3D"}, "[11]": {"conditions": "Compound A 60 mg/kg, gemcitabine 2.5 mg/kg"}, "[12]": {"conditions": "Compound A 60 mg/kg, ABT-199 25 mg/kg, gemcitabine 5 mg/kg"}, "[13]": {"conditions": "Day 21, Compound A 60 mg/kg PO QD x21, rituximab 1 mg/kg IV QW x3"}},
  "note": "Counter-ions that a name gives are not always drawn.",
  "data": [
    {"smiles": "Cn1cc(-c2nc(N[C@@H]3CCCC[C@@H]3N)c(F)c3c2C(=O)NC3)cn1", "note": "[Compound A, 6-((1R,2S)-2-aminocyclohexylamino)-7-fluoro-4-(1-methyl-1H-pyrazol-4-yl)-1H-pyrrolo[3,4-c]pyridine-3 (2H)-one citrate]", "values": [
      {"measurement": "Mean Tumor Volume (mm^3) ± SEM", "setting": "OCI-LY10 xenografts; [10]", "result": "409.4 ± 55.2", "unit": "mm^3"},
      {"measurement": "TGI (%)", "setting": "OCI-LY10 xenografts; [10]", "result": 65.5, "unit": "%"},
      {"measurement": "T/C", "setting": "OCI-LY10 xenografts; [11]", "result": 0.35},
      {"measurement": "Mean Tumor Volume (mm^3) ± SEM", "setting": "TMD8 DLBCL xenografts [1]; Compound A 60 mg/kg PO QD, gemcitabine 5 mg/kg IP Q3D x4", "result": "957.2 ± 82.2", "unit": "mm^3"},
      {"measurement": "T/C", "setting": "TMD8 DLBCL xenografts [1]; Compound A 60 mg/kg, gemcitabine 5 mg/kg", "result": 1.07},
      {"measurement": "TGI (%)", "setting": "TMD8 DLBCL xenografts [2]; Compound A 60 mg/kg PO QD, ABT-199 25 mg/kg PO QD, gemcitabine 5 mg/kg IP Q3D x4", "result": 25.7, "unit": "%"},
      {"measurement": "Mean Tumor Volume (mm^3) ± SEM", "setting": "TMD8 DLBCL xenografts [2]; [12]", "result": "1,100.2 ± 134.5 mm^3"},
      {"measurement": "T/C", "setting": "TMD8 DLBCL xenografts [2]; [12]", "result": 0.74},
      {"measurement": "TGI", "setting": "[3]; Day 21, Compound A 60 mg/kg PO QD x21, lenalidomide 10 mg/kg PO QD x21, citrate", "result": 43.6, "unit": "%"},
      {"measurement": "ΔAUC", "setting": "[3]; vs vehicle, Compound A 60 mg/kg, lenalidomide 10 mg/kg", "result": "34.7 (p < 0.001)"},
      {"measurement": "Mean Tumor Volume (mm^3) ± SEM at Day 21", "setting": "[4]; [13]", "result": "217.6 ± 25.6", "unit": "mm^3"},
      {"measurement": "TGI (%)", "setting": "[4]; [13]", "result": 76.0, "unit": "%"},
      {"measurement": "dAUC", "setting": "[4]; vs vehicle, Compound A 60 mg/kg, rituximab 1 mg/kg", "result": 122.4},
      {"measurement": "% BW Change (Day Maximum)", "setting": "[5]; Compound A 60 mg/kg PO QD 21 d, gemcitabine 2.5 mg/kg IP Q3D (4 doses)", "result": "6.8 (21) %"},
      {"measurement": "Number of animals removed", "setting": "[5]; [11]", "result": 0},
      {"measurement": "% BW Change (Day Maximum)", "setting": "[6]; Compound A 60 mg/kg PO QD 21 d, ibrutinib 20 mg/kg PO QD 21 d", "result": "11.6 (20) %"},
      {"measurement": "Number of animals removed", "setting": "[6]; Compound A 60 mg/kg, ibrutinib 20 mg/kg", "result": 0},
      {"measurement": "animals survived to 30 days after the last dose", "setting": "[7]", "result": 20, "unit": "%"},
      {"measurement": "increase in mean body weight on Day 14 compared to Day 0", "setting": "[8]", "result": 1.6, "unit": "g"},
      {"measurement": "Maximum mean % BWL", "setting": "[9]", "result": 0, "unit": "%"}
    ]}
  ]
}
